# According to ChEMBL document CHEMBL3885861, “Open TG-GATES”:
# Species on record: Rattus norvegicus
# Test: Open TG-GATES - Regimen: Single
# Format: toxicity, organism-based, Sprague-Dawley
# Design: regimen Single, gender Male, age 6 weeks
# Details: in vivo, po, route gavage; for APTT / Bas / Eos / Fbg / Hb / Ht / Lym / MCH / MCHC / MCV / Mono / Neu / PT / Plat / RBC / Ret / WBC: tissue Blood; for ALP / ALT / AST / BUN / CRE / DBIL / GLC / IP / K / Na / PL / RALB / TBIL / TC / TG / TP / gamma-GTP: tissue Plasma
# [1] = 100 mg/kg, 3 h, dose level Middle
# [2] = 100 mg/kg, 6 h, dose level Middle
# [3] = 100 mg/kg, 9 h, dose level Middle
# [4] = 100 mg/kg, 24 h, dose level Middle
# [5] = 300 mg/kg, 3 h, dose level High
# [6] = 300 mg/kg, 6 h, dose level High
# [7] = 300 mg/kg, 9 h, dose level High
# [8] = 300 mg/kg, 24 h, dose level High
smiles,measurement,setting,value
NS(=O)(=O)c1cc(C(=O)O)c(NCc2ccco2)cc1Cl [FUROSEMIDE],TERMINAL_BW,[1],199.5 g
same,APTT,[1],18.8 s
same,Bas,[1],0%
same,Eos,[1],1%
same,Fbg,[1],324.8 mg/dL
same,Hb,[1],14.3 g/dL
same,Ht,[1],42.5%
same,Lym,[1],70.8%
same,MCH,[1],21.4 pg
same,MCHC,[1],33.7%
same,MCV,[1],63.3 fL
same,Mono,[1],5.4%
same,Neu,[1],22%
same,PT,[1],14.9 s
same,Plat,[1],121.3 x10_4/uL
same,RBC,[1],670.4 x10_4/ul
same,Ret,[1],7.9%
same,WBC,[1],73.3 x10_2/uL
same,ALP,[1],1574.2 IU/L
same,ALT,[1],43.6 IU/L
same,AST,[1],77.6 IU/L
same,BUN,[1],19.8 mg/dL
same,CRE,[1],0.3 mg/dL
same,DBIL,[1],0.01 mg/dL
same,GLC,[1],182.2 mg/dL
same,IP,[1],11.3 mg/dL
same,K,[1],3.6 meq/L
same,Na,[1],140.8 meq/L
same,PL,[1],161.6 mg/dL
same,RALB,[1],3 g/dL
same,TBIL,[1],0.064 mg/dL
same,TC,[1],88 mg/dL
same,TG,[1],64.2 mg/dL
same,TP,[1],6.4 g/dL
same,gamma-GTP,[1],1 IU/L
same,TERMINAL_BW,[2],195.4 g
same,APTT,[2],17.3 s
same,Bas,[2],0%
same,Eos,[2],1%
same,Fbg,[2],323.2 mg/dL
same,Hb,[2],14.7 g/dL
same,Ht,[2],43.3%
same,Lym,[2],64.8%
same,MCH,[2],20.8 pg
same,MCHC,[2],33.8%
same,MCV,[2],61.7 fL
same,Mono,[2],4.2%
same,Neu,[2],29.6%
same,PT,[2],14.9 s
same,Plat,[2],125.9 x10_4/uL
same,RBC,[2],703.4 x10_4/ul
same,Ret,[2],7.7%
same,WBC,[2],73.2 x10_2/uL
same,ALP,[2],1685 IU/L
same,ALT,[2],42.6 IU/L
same,AST,[2],84.6 IU/L
same,BUN,[2],21.8 mg/dL
same,CRE,[2],0.2 mg/dL
same,DBIL,[2],0.012 mg/dL
same,GLC,[2],192.6 mg/dL
same,IP,[2],10.4 mg/dL
same,K,[2],3.5 meq/L
same,Na,[2],141.2 meq/L
same,PL,[2],162.8 mg/dL
same,RALB,[2],3 g/dL
same,TBIL,[2],0.068 mg/dL
same,TC,[2],83.6 mg/dL
same,TG,[2],71.8 mg/dL
same,TP,[2],6.4 g/dL
same,gamma-GTP,[2],1 IU/L
same,TERMINAL_BW,[3],193.8 g
same,APTT,[3],18 s
same,Bas,[3],0%
same,Eos,[3],0.8%
same,Fbg,[3],334.8 mg/dL
same,Hb,[3],14.6 g/dL
same,Ht,[3],42.6%
same,Lym,[3],68.6%
same,MCH,[3],20.8 pg
same,MCHC,[3],34.1%
same,MCV,[3],61.1 fL
same,Mono,[3],3.2%
same,Neu,[3],26.8%
same,PT,[3],15 s
same,Plat,[3],133.5 x10_4/uL
same,RBC,[3],697.8 x10_4/ul
same,Ret,[3],7.4%
same,WBC,[3],72.2 x10_2/uL
same,ALP,[3],1341.8 IU/L
same,ALT,[3],36.2 IU/L
same,AST,[3],74.6 IU/L
same,BUN,[3],20.2 mg/dL
same,CRE,[3],0.2 mg/dL
same,DBIL,[3],0.01 mg/dL
same,GLC,[3],173.8 mg/dL
same,IP,[3],11.1 mg/dL
same,K,[3],3.6 meq/L
same,Na,[3],141.4 meq/L
same,PL,[3],149.6 mg/dL
same,RALB,[3],3 g/dL
same,TBIL,[3],0.072 mg/dL
same,TC,[3],88.6 mg/dL
same,TG,[3],36.2 mg/dL
same,TP,[3],6.3 g/dL
same,gamma-GTP,[3],0.8 IU/L
same,TERMINAL_BW,[4],215 g
same,APTT,[4],17.7 s
same,Bas,[4],0%
same,Eos,[4],0.8%
same,Fbg,[4],286.8 mg/dL
same,Hb,[4],13.3 g/dL
same,Ht,[4],39.6%
same,Lym,[4],80.4%
same,MCH,[4],21.9 pg
same,MCHC,[4],33.7%
same,MCV,[4],64.9 fL
same,Mono,[4],2.4%
same,Neu,[4],15%
same,PT,[4],15.7 s
same,Plat,[4],102.2 x10_4/uL
same,RBC,[4],610.4 x10_4/ul
same,Ret,[4],7%
same,WBC,[4],102.9 x10_2/uL
same,ALP,[4],1380 IU/L
same,ALT,[4],42.4 IU/L
same,AST,[4],68.2 IU/L
same,BUN,[4],19.4 mg/dL
same,CRE,[4],0.2 mg/dL
same,DBIL,[4],0.008 mg/dL
same,GLC,[4],189.4 mg/dL
same,IP,[4],8 mg/dL
same,K,[4],3.7 meq/L
same,Na,[4],141.6 meq/L
same,PL,[4],155.2 mg/dL
same,RALB,[4],2.6 g/dL
same,TBIL,[4],0.054 mg/dL
same,TC,[4],81.4 mg/dL
same,TG,[4],56 mg/dL
same,TP,[4],5.7 g/dL
same,gamma-GTP,[4],0.2 IU/L
same,TERMINAL_BW,[5],199.2 g
same,APTT,[5],18.3 s
same,Bas,[5],0%
same,Eos,[5],1%
same,Fbg,[5],357 mg/dL
same,Hb,[5],14.8 g/dL
same,Ht,[5],43.9%
same,Lym,[5],66.6%
same,MCH,[5],21.4 pg
same,MCHC,[5],33.7%
same,MCV,[5],63.6 fL
same,Mono,[5],4.6%
same,Neu,[5],26.4%
same,PT,[5],14.8 s
same,Plat,[5],119.6 x10_4/uL
same,RBC,[5],690.4 x10_4/ul
same,Ret,[5],8.3%
same,WBC,[5],67.2 x10_2/uL
same,ALP,[5],1694 IU/L
same,ALT,[5],47.2 IU/L
same,AST,[5],78.4 IU/L
same,BUN,[5],19.4 mg/dL
same,CRE,[5],0.3 mg/dL
same,DBIL,[5],0.01 mg/dL
same,GLC,[5],193.8 mg/dL
same,IP,[5],12.8 mg/dL
same,K,[5],3.4 meq/L
same,Na,[5],140 meq/L
same,PL,[5],168.2 mg/dL
same,RALB,[5],3.2 g/dL
same,TBIL,[5],0.062 mg/dL
same,TC,[5],91.6 mg/dL
same,TG,[5],69 mg/dL
same,TP,[5],6.9 g/dL
same,gamma-GTP,[5],0.8 IU/L
same,TERMINAL_BW,[6],194.8 g
same,APTT,[6],20.9 s
same,Bas,[6],0%
same,Eos,[6],1%
same,Fbg,[6],381.6 mg/dL
same,Hb,[6],15.3 g/dL
same,Ht,[6],45.3%
same,Lym,[6],62.6%
same,MCH,[6],21.4 pg
same,MCHC,[6],33.8%
same,MCV,[6],63.5 fL
same,Mono,[6],4%
same,Neu,[6],31.8%
same,PT,[6],14.4 s
same,Plat,[6],126.6 x10_4/uL
same,RBC,[6],715 x10_4/ul
same,Ret,[6],7.7%
same,WBC,[6],72.7 x10_2/uL
same,ALP,[6],1419.8 IU/L
same,ALT,[6],39.2 IU/L
same,AST,[6],77.2 IU/L
same,BUN,[6],24.4 mg/dL
same,CRE,[6],0.3 mg/dL
same,DBIL,[6],0.008 mg/dL
same,GLC,[6],190.6 mg/dL
same,IP,[6],11.4 mg/dL
same,K,[6],3.5 meq/L
same,Na,[6],140 meq/L
same,PL,[6],190 mg/dL
same,RALB,[6],3.2 g/dL
same,TBIL,[6],0.068 mg/dL
same,TC,[6],111.4 mg/dL
same,TG,[6],64.2 mg/dL
same,TP,[6],6.9 g/dL
same,gamma-GTP,[6],0.6 IU/L
same,TERMINAL_BW,[7],192 g
same,APTT,[7],19.5 s
same,Bas,[7],0%
same,Eos,[7],0.8%
same,Fbg,[7],382.4 mg/dL
same,Hb,[7],15.3 g/dL
same,Ht,[7],44.8%
same,Lym,[7],66.4%
same,MCH,[7],21.3 pg
same,MCHC,[7],34.1%
same,MCV,[7],62.5 fL
same,Mono,[7],3.4%
same,Neu,[7],28.4%
same,PT,[7],14.4 s
same,Plat,[7],117.9 x10_4/uL
same,RBC,[7],716 x10_4/ul
same,Ret,[7],7.8%
same,WBC,[7],73.1 x10_2/uL
same,ALP,[7],1461.8 IU/L
same,ALT,[7],38 IU/L
same,AST,[7],71.6 IU/L
same,BUN,[7],25.2 mg/dL
same,CRE,[7],0.2 mg/dL
same,DBIL,[7],0.012 mg/dL
same,GLC,[7],186.8 mg/dL
same,IP,[7],10.9 mg/dL
same,K,[7],3.3 meq/L
same,Na,[7],141.6 meq/L
same,PL,[7],176.8 mg/dL
same,RALB,[7],3.2 g/dL
same,TBIL,[7],0.078 mg/dL
same,TC,[7],102 mg/dL
same,TG,[7],33.6 mg/dL
same,TP,[7],6.8 g/dL
same,gamma-GTP,[7],1 IU/L
same,TERMINAL_BW,[8],195.5 g
same,APTT,[8],16.8 s
same,Bas,[8],0.2%
same,Eos,[8],1%
same,Fbg,[8],386.6 mg/dL
same,Hb,[8],14.5 g/dL
same,Ht,[8],41.9%
same,Lym,[8],74%
same,MCH,[8],21.2 pg
same,MCHC,[8],34.5%
same,MCV,[8],61.3 fL
same,Mono,[8],3.4%
same,Neu,[8],20.4%
same,PT,[8],15.2 s
same,Plat,[8],117.8 x10_4/uL
same,RBC,[8],683.8 x10_4/ul
same,Ret,[8],6.7%
same,WBC,[8],95.6 x10_2/uL
same,ALP,[8],1470.8 IU/L
same,ALT,[8],44.4 IU/L
same,AST,[8],72.8 IU/L
same,BUN,[8],36.2 mg/dL
same,CRE,[8],0.3 mg/dL
same,DBIL,[8],0.014 mg/dL
same,GLC,[8],178.4 mg/dL
same,IP,[8],7.8 mg/dL
same,K,[8],3.3 meq/L
same,Na,[8],138.2 meq/L
same,PL,[8],159.2 mg/dL
same,RALB,[8],3 g/dL
same,TBIL,[8],0.064 mg/dL
same,TC,[8],93.2 mg/dL
same,TG,[8],43 mg/dL
same,TP,[8],6.4 g/dL
same,gamma-GTP,[8],0.8 IU/L
